Our source for the relative viability values is the supplement of paper PMC10307832.

Common to all, as to test: relative viability (nuclei count vs DMSO), 5 days (fraction); higher = more cells survive
Compound in the experiment “Idelalisib + Tozasertib”: CC[C@H](Nc1ncnc2[nH]cnc12)c1nc2cccc(F)c2c(=O)n1-c1ccccc1 [Idelalisib] + Cc1cc(Nc2cc(N3CCN(C)CC3)nc(Sc3ccc(NC(=O)C4CC4)cc3)n2)n[nH]1 [Tozasertib] (partner 0.1 µM)
An outline of the steps:
(§1)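 Medians of duplicate plates are given as relative viability. That measure is the nuclei count in treated wells divided by the count in vehicle wells. Counts were taken on 4× images of lung cancer cell lines in 1536-well plates, 5 days after pin-tool dosing the day after seeding with one drug alone or a fixed anchor-drug dose plus five library-drug doses (not always all listed) in √10 steps.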

Compound in the experiment “Pemetrexed + Luminespib”: Nc1nc2[nH]cc(CCc3ccc(C(=O)N[C@@H](CCC(=O)O)C(=O)O)cc3)c2c(=O)[nH]1 [Pemetrexed] + CCNC(=O)c1noc(-c2cc(C(C)C)c(O)cc2O)c1-c1ccc(CN2CCOCC2)cc1 [Luminespib] (partner 0.01 µM)
In short, it runs like this: as §1

Compound in the experiment “Pemetrexed + Phenformin”: Nc1nc2[nH]cc(CCc3ccc(C(=O)N[C@@H](CCC(=O)O)C(=O)O)cc3)c2c(=O)[nH]1 [Pemetrexed] + N=C(N)NC(=N)NCCc1ccccc1 [Phenformin] (partner 250 µM)
In short, it runs like this:
as §1

Compound in the experiment “Idelalisib + Vorinostat”: CC[C@H](Nc1ncnc2[nH]cnc12)c1nc2cccc(F)c2c(=O)n1-c1ccccc1 [Idelalisib] + O=C(CCCCCCC(=O)Nc1ccccc1)NO [Vorinostat] (partner 1 µM)
In short, it runs like this: as §1

Regarding UMC-11, the relative viability in the experiment with Idelalisib + Tozasertib (first compound 0.04 µM) worked out at 0.218; in the experiment with Idelalisib + Tozasertib (first compound 0.1265 µM), 0.192; in the experiment with Idelalisib + Tozasertib (first compound 0.4 µM), 0.203; with Idelalisib + Tozasertib (first compound 1.265 µM), 0.188; in the experiment with Idelalisib + Tozasertib (first compound 4 µM), 0.192; with Pemetrexed + Luminespib (first compound 0.002 µM), 0.989. The relative viability was determined as 0.972 in the experiment with Pemetrexed + Luminespib (first compound 0.006325 µM); 1.03 in the experiment with Pemetrexed + Luminespib (first compound 0.02 µM); 1.09 in the experiment with Pemetrexed + Luminespib (first compound 0.06325 µM); 0.923 with Pemetrexed + Luminespib (first compound 0.2 µM); 0.325 in the experiment with Pemetrexed + Phenformin (first compound 0.002 µM); 0.311 with Pemetrexed + Phenformin (first compound 0.006325 µM). Moreover, the relative viability in the experiment with Pemetrexed + Phenformin (first compound 0.02 µM) was found to be 0.312; in the experiment with Pemetrexed + Phenformin (first compound 0.06325 µM), 0.334; in the experiment with Pemetrexed + Phenformin (first compound 0.2 µM), 0.347; in the experiment with Idelalisib + Vorinostat (first compound 0.04 µM), 0.474; with Idelalisib + Vorinostat (first compound 0.1265 µM) it was 0.392; with Idelalisib + Vorinostat (first compound 0.4 µM) it was 0.363. For the same cell line, the relative viability with Idelalisib + Vorinostat (first compound 1.265 µM) worked out at 0.437; with Idelalisib + Vorinostat (first compound 4 µM) it was 0.358.
